# Target: T1, RORγ ligand binding domain (LBD) (Homo sapiens, UniProt P51449)
# T1 construct: made in house; host or cells: E. coli BL-21 (BL3), vector pDEST15
# T1 sequence (P51449 269-508 limits assumed): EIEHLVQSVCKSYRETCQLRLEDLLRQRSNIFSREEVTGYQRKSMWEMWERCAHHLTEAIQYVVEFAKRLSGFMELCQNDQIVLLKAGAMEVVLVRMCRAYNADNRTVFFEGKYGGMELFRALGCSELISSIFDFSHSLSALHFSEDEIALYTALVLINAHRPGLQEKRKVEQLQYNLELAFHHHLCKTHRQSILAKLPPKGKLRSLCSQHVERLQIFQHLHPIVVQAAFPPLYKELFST
# Assay: TR-FRET Activity Assay (ligand sensing, RORγ-LBD / coactivator peptide interaction)
# Format: biochemical
# Conditions: not given
# From the text: This method measures the ability of putative ligands to modulate the interaction between the purified bacterial expressed RORγ ligand binding domain (LBD) and synthetic N-terminally biotinylated peptides which are derived from nuclear receptor coactivator proteins such as but not limited to SRC1 (NcoA1), SRC2 (NcoA2, TIF2), SRC3 (NcoA3), PGC1α, PGC1β, CBP, GRIP1, TRAP220, RIP140.
# The ligand-binding domain (LBD) of RORγ was expressed as fusion protein with GST in […] cells using the vector pDEST15. Cells were lysed by lysozyme-treatment and sonication, and the fusion proteins purified over glutathione sepharose (Pharmacia) according to the manufacturers instructions. For screening of compounds for their influence on the RORγ-peptide interaction, the LANCE technology (Perkin Elmer) was applied. This method relies on the binding dependent energy transfer from a donor to an acceptor fluorophor attached to the binding partner of interest. For ease of handling and reduction of background from compound fluorescence LANCE technology makes use of generic fluorophore labels and time resolved detection assays were done in a final volume of 25 μL in a 384 well plate, in a Tris-based buffer system (20 mM Tris-HCl pH6.8; 60 mM KCl, 1 mM DTT; 5 mM MgCl2; 35 ng/μL BSA), containing 20-60 ng/well recombinantly expressed RORγ-LBD fused to GST, 200-600 nM N-terminally biotinylated peptide, 200 ng/well Streptavidin-xIAPC conjugate (Prozyme) and 6-10 ng/well Eu W1024-antiGST (Perkin Elmer). DMSO content of the samples was kept at 1%.
# After generation of the Tris-based buffer system, the potentially RORγ modulating ligands were diluted. […] The LANCE signal was detected by a Perkin Elmer EnVision™ Multilabel Counter. The results were visualized by plotting the ratio between the emitted light at 665 nm and 615 nm. […] Ligands that promote the complex formation induce a concentration-dependent increase in time-resolved fluorescent signal.
# The normalised TR-FRET assay values, using the following equation: 1000*665 nm measurement value/615 nm measurement value, were transferred to the program GraphPad Prism to generate graphs and dose response curves using the following equation:
# Equation: Sigmoidal Dose-Response (Variable Slope) Y=Bottom+(Top-Bottom)/(1+10^((LogEC50−X)*HillSlope)) X is the logarithm of the concentration. Y is the response. Y starts at Bottom and goes to Top with a sigmoidal shape.
# This is identical to the “four parameter logistic equation”. The IC50 values are calculated using this equation.
row,SMILES,IC50 [nM]
1,Cc1c(S(N)(=O)=O)cc(-c2cc(C(C)(C)C)c(OCCO)c(C(C)(C)C)c2)n1CC1CCCCC1 [16/8],500 to 2000
2,Cc1c(S(N)(=O)=O)cc(-c2cn(S(=O)(=O)NC(C)(C)C)c3ccccc23)n1CC1CCCCC1 [1/32],> 2000
3,Cc1c(S(=O)(=O)NCC(C)(C)O)cc(-c2cc(C(C)(C)C)cc(C(C)(C)C)c2)n1CC1CCCCC1 [2/5],< 500
4,Cc1c(S(N)(=O)=O)cc(-c2cc(C(C)(C)C)cc(S(=O)(=O)N(C)C(C)(C)C)c2)n1CC1CCCCC1 [22/4],500 to 2000

# Same assay, conditions: read-out: RORγ activity in the TR-FRET Activity Assay (IC50 FRET), Group
row,SMILES,IC50 [nM]
1,Cc1c(S(N)(=O)=O)cc(-c2c(C)n(S(=O)(=O)N3CCCCC3)c3ccccc23)n1CC1CCCCC1 [1/36],> 2000
2,Cc1c(S(N)(=O)=O)cc(-c2ccc(S(=O)(=O)N3CCCC(C)C3)c(C(C)(C)C)c2)n1CC1CCCCC1 (centres unmarked) [1/27],< 500
3,CCC(=O)NCC(C)(C)c1cc(-c2cc(S(N)(=O)=O)c(C)n2CC2CCCCC2)cc(C(C)(C)C)c1 [49/1],> 2000
4,Cc1c(S(N)(=O)=O)cc(-c2ccc(N3CCOCC3=O)c(C(C)(C)C)c2)n1CC1CCCCC1 [12/35],> 2000
5,Cc1c(S(N)(=O)=O)cc(-c2cc(C(C)(C)C)cc(C3(C)CC3)c2)n1CC1CCCCC1 [12/33],< 500
6,"Cc1c(S(N)(=O)=O)cc(-c2cc(C(C)(C)C)cc(C(C)(F)F)c2)n1CC1CCCCC1 [Example 7, 5-(3-(tert-Butyl)-5-(1,1-difluoroethyl)phenyl)-1-(cyclohexylmethyl)-2-methyl-1H-pyrrole-3-sulfonamide]",< 500
7,Cc1c(S(N)(=O)=O)cc(-c2cn(S(=O)(=O)c3ccccc3)c3ccccc23)n1CC1CCCCC1 [1/19],500 to 2000
8,Cc1c(S(N)(=O)=O)cc(-c2cc(C(C)(C)C)cc(S(=O)(=O)NC(C)(C)C)c2)n1CC1CCCCC1 [22/3],> 2000
9,Cc1c(S(N)(=O)=O)cc(-c2cc(C(C)(C)C)cc(C(C)(C)CF)c2)n1CC1CCCCC1 [12/26],> 2000
10,"Cc1c(S(N)(=O)=O)cc(-c2cc(OCC(C)C)nc(C(C)(C)C)c2)n1CC1CCCCC1 [Example 17, 5-(2-tert-Butyl-6-isobutoxypyridin-4-yl)-1-(cyclohexylmethyl)-2-methyl-1H-pyrrole-3-sulfonamide]",< 500
11,Cc1c(S(N)(=O)=O)cc(-c2cc(OCC3CC3)cc(C(C)(C)C)c2)n1CC1CCCCC1 [16/3],500 to 2000
12,Cc1c(S(N)(=O)=O)cc(-c2ccc(S(=O)(=O)NC(C)(C)C)c(C(F)F)c2)n1CC1CCCCC1 [12/29],< 500
13,Cc1c(S(N)(=O)=O)cc(-c2cc(OC(C)C)cc(C(C)(C)C)c2)n1CC1CCCCC1 [16/2],500 to 2000
14,Cc1c(S(N)(=O)=O)cc(C2=CC(S(=O)(=O)c3ccc(Cl)cc3)c3ccccc32)n1CC1CCCCC1 (centres unmarked) [53/2],500 to 2000
15,Cc1c(S(N)(=O)=O)cc(-c2cc(C(C)(C)C)cc(C(C)(C)C)c2)n1CC1CCOCC1 [1/20],> 2000
16,"Cc1c(S(N)(=O)=O)cc(-c2cc(C(C)(C)C)cc(C(C)(C)CN)c2)n1CC1CCCCC1 [Example 48, 5-(3-(1-Amino-2-methylpropan-2-yl)-5-(tert-butyl)phenyl)-1-(cyclohexyl-methyl)-2-methyl-1H-pyrrole-3-sulfonamide]",> 2000
17,"CC(=O)NCC(C)(C)c1cc(-c2cc(S(N)(=O)=O)c(C)n2CC2CCCCC2)cc(C(C)(C)C)c1 [Example 49, N-(2-(3-(tert-Butyl)-5-(1-(cyclohexylmethyl)-5-methyl-4-sulfamoyl-1H-pyrrol-2-yl)phenyl)-2-methylpropyl)acetamide]",> 2000

# The remaining lines, values ahead:
row,IC50 [nM],SMILES
1,> 2000,"Cn1c(S(N)(=O)=O)cc(-c2cc(C(C)(C)C)cc(C(C)(C)C)c2)c1CC1CCCCC1 [Example 25, 5-(Cyclohexylmethyl)-4-(3,5-di-tert-butylphenyl)-1-methyl-1H-pyrrole-2-sulfonamide]"
2,500 to 2000,COCCOc1cc(-c2cc(S(N)(=O)=O)c(C)n2CC2CCCCC2)cc(C(C)(C)C)n1 [17/4]
3,< 500,"Cc1c(S(=O)(=O)NC2CC2)cc(-c2cc(C(C)(C)C)cc(C(C)(C)C)c2)n1CC1CCCCC1 [Example 3, 1-(Cyclohexylmethyl)-N-cyclopropyl-5-(3,5-di-tert-butylphenyl)-2-methyl-1H-pyrrole-3-sulfonamide]"
4,> 2000,Cc1c(S(N)(=O)=O)cc(-c2cc(OCCCN3CCOCC3)nc(C(C)(C)C)c2)n1CC1CCCCC1 [17/3]
5,< 500,"CC(C)(C)c1cc(-c2cc(S(N)(=O)=O)c(C#N)n2CC2CCCCC2)cc(C(C)(C)C)c1 [Example 33, 2-Cyano-1-(cyclohexylmethyl)-5-(3,5-di-tert-butylphenyl)-1H-pyrrole-3-sulfonamide]"
6,> 2000,Cc1c(S(N)(=O)=O)cc(-c2cnc(OCC(C)(C)C)c(C(F)(F)F)c2)n1CC1CCCCC1 [34/4]
7,< 500,Cc1c(S(N)(=O)=O)cc(-c2cc(C3(C)CC3)cc(C3(C)CC3)c2)n1CC1CCCCC1 [12/40]
8,500 to 2000,CCOc1cc(-c2cc(S(N)(=O)=O)c(C)n2CC2CCCCC2)cc(C(C)(C)C)n1 [17/2]
9,> 2000,Cc1c(S(N)(=O)=O)cc(-c2cccc(N3CCCC3)c2)n1CC1CCCCC1 [1/14]
10,500 to 2000,Cc1c(S(=O)(=O)NCC2COCCN2C)cc(-c2cc(C(C)(C)C)cc(C(C)(C)C)c2)n1CC1CCCCC1 (centres unmarked) [5/11]
11,< 500,"Cc1c(S(=O)(=O)NCCC(N)=O)cc(-c2cc(C(C)(C)C)cc(C(C)(C)C)c2)n1CC1CCCCC1 [Example 40, 3-(1-(cyclohexylmethyl)-5-(3,5-di-tert-butylphenyl)-2-methyl-1H-pyrrole-3-sulfonamido)propanamide]"
12,500 to 2000,Cc1c(S(N)(=O)=O)cc(-c2cc3c(c(C(C)(C)C)c2)OCCC3=O)n1CC1CCCCC1 [12/28]
13,< 500,"CC(C)(C)c1cc(-c2cc(S(N)(=O)=O)c(Br)n2CC2CCCCC2)cc(C(C)(C)C)c1 [Example 31, 2-Bromo-1-(cyclohexylmethyl)-5-(3,5-di-tert-butylphenyl)-1H-pyrrole-3-sulfonamide]"
14,< 500,Cc1c(S(N)(=O)=O)cc(-c2cc(C(C)(C)C)cc(C(C)(C)C)c2)n1CC1CCCCCC1 [1/37]
15,> 2000,"Cc1c(S(N)(=O)=O)cc(-c2cc(C(F)(F)F)c(=O)n(CC(C)(C)C)c2)n1CC1CCCCC1 [Example 34, 1-(Cyclohexylmethyl)-2-methyl-5-(1-neopentyl-6-oxo-5-(trifluoromethyl)-1,6-dihydropyridin-3-yl)-1H-pyrrole-3-sulfonamide]"
16,< 500,CCC(C)(C)NS(=O)(=O)c1ccc(-c2cc(S(N)(=O)=O)c(C)n2CC2CCCCC2)cc1C(F)(F)F [22/6]
17,500 to 2000,COCC(C)(C)NS(=O)(=O)c1ccc(-c2cc(S(N)(=O)=O)c(C)n2CC2CCCCC2)cc1C(F)(F)F [12/32]
18,< 500,"Cc1c(S(=O)(=O)N2CCOCC2)cc(-c2cc(C(C)(C)C)cc(C(C)(C)C)c2)n1CC1CCCCC1 [Example 44, 4-((1-(Cyclohexylmethyl)-5-(3,5-di-tert-butylphenyl)-2-methyl-1H-pyrrol-3-yl)sulfonyl)morpholine]"
19,< 500,"CC(C)(C)c1cc(-c2cc(S(N)(=O)=O)cn2CC2CCCCC2)cc(C(C)(C)C)c1 [Example 28, 1-(Cyclohexylmethyl)-5-(3,5-di-tert-butylphenyl)-1H-pyrrole-3-sulfonamide]"
20,< 500,"Cc1c(S(=O)(=O)NCCC(N)=O)c(Cl)c(-c2cc(C(C)(C)C)cc(C(C)(C)C)c2)n1CC1CCCCC1 [Example 41, 3-(4-chloro-1-(cyclohexylmethyl)-5-(3,5-di-tert-butylphenyl)-2-methyl-1H-pyrrole-3-sulfonamido)propanamide]"

# Source: patent publication US8946446B2, “Pyrrolo sulfonamide compounds for modulation of orphan nuclear receptor RAR-related orphan receptor-γ (ROR-γ, NR1F3) activity and for the treatment of chronic inflammatory and autoimmune diseases” (Phenex Pharmaceuticals AG, priority 2011, dated 2015)
